Results taken from US8435587B2, “High-potency sweetener composition with long-chain primary aliphatic saturated alcohol and compositions sweetened therewith” (The Coca-Cola Company, priority 2005, dated 2013).

Assays:
[1] = Rate of dissolution of rebaudioside A forms in H2O at 25° C.; type: physicochemical
[2] = type: physicochemical
Experimental: A solution of rebaudioside A (>97% pure by HPLC) was prepared in double distilled water (12.5 gm in 50 mL, 25% concentration) by stirring the mixture at 40° C. for 5 minutes. An amorphous form of rebaudioside A was formed by immediately using the clear solution for spray drying with the Lab-Plant spray drier SD-04 instrument (Lab-Plant Ltd., West Yorkshire, U.K.). The solution was fed through the feed pump into the nozzle atomizer which atomized it into a spray of droplets with the help of a constant flow of nitrogen/air. […] This dry powder (11-12 g, H2O 6.74%) was discharged continuously from the drying chamber and was collected in a bottle.

[3] = Sweetness level as sucrose equivalent
[4] = Sensory evaluation of sweetness linger and sugar-like taste by expert panel; type: in vivo; set-up: key: 0: no sweetness linger; 1: very slight sweetness linger; 2: slight sweetness linger; 3: moderate sweetness linger; 4: moderately high sweetness linger; 5: high sweetness linger
Experimental: As used herein, the phrases “sugar-like characteristic,” “sugar-like taste,” “sugar-like sweet,” “sugary,” and “sugar-like” are synonymous. […] These characteristics are dimensions in which the taste of sucrose is different from the tastes of natural and synthetic high-potency sweeteners. Whether or not a characteristic is more sugar-like is determined by expert sensory panel assessments of sugar and compositions comprising at least one natural and/or synthetic high-potency sweetener, both with and without a sweet taste improving composition. Such assessments quantify similarities of the characteristics of compositions comprising at least one natural and/or synthetic high-potency sweetener, both with and without a sweet taste improving composition, with those comprising sugar. Suitable procedures for determining whether a composition has a more sugar-like taste are well known in the art.
In a particular embodiment, a panel of assessors is used to measure the reduction of sweetness linger. […] A decrease in score for a time point measured after the sample has cleared the mouth indicates there has been a reduction in sweetness perception. […]

SMILES | Rate of dissolution in H2O at 25° C. ([1]; H2O, 25° C.) | Rate of dissolution in H2O at 25° C. ([1]; in words) | Solubility in water [2] [%] | Sucrose equivalent ([3]; 180 ppm rebaudioside A in diluted beverage) [% sucrose] | Sucrose equivalent ([3]; 400 ppm REBA) [g sucrose] | Sweetness linger rating ([4]; control: 400 ppm REBA in citric acid/potassium citrate composition, no additive) | Sweetness linger rating ([4]; control: 500 ppm REBA in carbon-treated water, phosphoric acid pH 2.4-2.5, no additive)
C=C1C[C@@]23CC[C@H]4[C@@](C)(CCC[C@@]4(C)C(=O)O[C@@H]4O[C@H](CO)[C@@H](O)[C@H](O)[C@H]4O)[C@@H]2CC[C@]1(O[C@@H]1O[C@H](CO)[C@@H](O)[C@H](O[C@@H]2O[C@H](CO)[C@@H](O)[C@H](O)[C@H]2O)[C@H]1O[C@@H]1O[C@H](CO)[C@@H](O)[C@H](O)[C@H]1O)C3 [Form 1, rebaudioside A] | (<0.2%/ %/60 minutes | Very low | – | – | – | – | –
C=C1C[C@@]23CC[C@H]4[C@@](C)(CCC[C@@]4(C)C(=O)O[C@@H]4O[C@H](CO)[C@@H](O)[C@H](O)[C@H]4O)[C@@H]2CC[C@]1(O[C@@H]1O[C@H](CO)[C@@H](O)[C@H](O[C@@H]2O[C@H](CO)[C@@H](O)[C@H](O)[C@H]2O)[C@H]1O[C@@H]1O[C@H](CO)[C@@H](O)[C@H](O)[C@H]1O)C3 [Form 2, rebaudioside A] | (<30%/ %/5 minutes | Intermediate | – | – | – | – | –
C=C1C[C@@]23CC[C@H]4[C@@](C)(CCC[C@@]4(C)C(=O)O[C@@H]4O[C@H](CO)[C@@H](O)[C@H](O)[C@H]4O)[C@@H]2CC[C@]1(O[C@@H]1O[C@H](CO)[C@@H](O)[C@H](O[C@@H]2O[C@H](CO)[C@@H](O)[C@H](O)[C@H]2O)[C@H]1O[C@@H]1O[C@H](CO)[C@@H](O)[C@H](O)[C@H]1O)C3 [Form 3, rebaudioside A] | (>30%/ %/5 minutes | High | – | – | – | – | –
C=C1C[C@@]23CC[C@H]4[C@@](C)(CCC[C@@]4(C)C(=O)O[C@@H]4O[C@H](CO)[C@@H](O)[C@H](O)[C@H]4O)[C@@H]2CC[C@]1(O[C@@H]1O[C@H](CO)[C@@H](O)[C@H](O[C@@H]2O[C@H](CO)[C@@H](O)[C@H](O)[C@H]2O)[C@H]1O[C@@H]1O[C@H](CO)[C@@H](O)[C@H](O)[C@H]1O)C3 [Form 4, rebaudioside A] | (>35.0%/ %/5 minutes | High | > 35.0 | – | – | – | –
C=C1C[C@@]23CC[C@H]4[C@@](C)(CCC[C@@]4(C)C(=O)O[C@@H]4O[C@H](CO)[C@@H](O)[C@H](O)[C@H]4O)[C@@H]2CC[C@]1(O[C@@H]1O[C@H](CO)[C@@H](O)[C@H](O[C@@H]2O[C@H](CO)[C@@H](O)[C@H](O)[C@H]2O)[C@H]1O[C@@H]1O[C@H](CO)[C@@H](O)[C@H](O)[C@H]1O)C3 [REBA, rebaudioside A] | – | – | – | 5 | 8 | 5 | 5
